Measured values from US4416884A, “Piperazinylbenzoheterocyclic compounds” (Otsuka Pharmaceutical Co., Ltd., priority 1978, dated 1983).
Read-outs that look alike come from different tables or passages of the source.

Assays:
Format in all cases: cell-based
[1] = tested on: Test Organism 16 (Pseudomonas maltophilia IFO 12692); assay: influence of the addition of horse serum on the MIC; conditions: Stenotrophomonas maltophilia
[2] = tested on: Pseudomonas aeruginosa E-2; assay: antimicrobial activity, serial dilution method on agar plate
Outline: (§1)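 Reported figure is the lowest compound level (mcg/ml) inhibiting growth on Heart Infusion agar in a serial plate dilution. Suspensions of 1×10^8 and 1×10^6 cells/ml served as inocula.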

Escherichia Coli NIHJ = assay: as above
Outline: as §1

[3] = tested on: Streptococcus pyogenes IID S-23; assay: as above
Outline: as §1

[4] = tested on: Streptococcus pneumoniae Type II; assay: as above
Outline: as §1

Klebsiella pneumoniae = assay: as above
Outline: as §1

[5] = tested on: Pseudomonas aeruginosa ATCC 10145; assay: as above
Outline: as §1

Enterobacter cloacae = assay: as above
Outline: as §1

[6] = tested on: Streptococcus pneumoniae Type III; assay: as above
Outline: as §1

[7] = tested on: Bacillus subtilis PCI 219; assay: as above
Outline: as §1

[8] = tested on: Proteus morganii IID Kono; assay: as above; conditions: Morganella morganii
Outline: as §1

[9] = tested on: Escherichia Coli NIHJ JC-2 (IFO 12734); assay: as above; conditions: Escherichia coli, read-out: Minimum Inhibitory Concentration
Outline: as §1

[10] = tested on: Pseudomonas putida IFO 13696; assay: as above
Outline: as §1

[11] = tested on: Enterobacter aerogenes IFO 12979; assay: as above; conditions: Klebsiella aerogenes
Outline: as §1

[12] = tested on: Salmonella typhi 0-901 (NCTC 8393); assay: as above; conditions: Salmonella enterica, read-out: Minimum Inhibitory Concentration
Outline: as §1

[13] = tested on: Pseudomonas maltophilia IFO 12692; assay: as above; conditions: Stenotrophomonas maltophilia, IFO12692, read-out: Minimum Inhibitory Concentration
Outline: as §1

[14] = tested on: Proteus vulgaris IID OX-19; assay: as above; conditions: read-out: Minimum Inhibitory Concentration
Outline: as §1

Proteus rettgeri NIH 96 = assay: as above; conditions: Providencia rettgeri
Outline: as §1

Hafnia alvei IFO 3731 = assay: as above
Outline: as §1

[15] = tested on: Pseudomonas aeruginosa NCTC 10490; assay: as above
Outline: as §1

Shigella Sonnei EW 33 = assay: as above; conditions: read-out: Minimum Inhibitory Concentration
Outline: as §1

[16] = tested on: Streptococcus pneumoniae Type I; assay: as above
Outline: as §1

[17] = tested on: Streptococcus pyogenes IID Cook; assay: as above
Outline: as §1

[18] = tested on: Test Organism 21 (Bacillus subtilis PCI 219); assay: influence of the addition of horse serum on the MIC
[19] = tested on: Test Organism 27 (Streptococcus pneumoniae Type III); assay: as above
[20] = IFO12692, read-out: Minimum Inhibitory Concentration, horse serum 0%, inoculum 10^6
[21] = IFO12692, read-out: Minimum Inhibitory Concentration, horse serum 0%, inoculum 10^8
[22] = IFO12692, read-out: Minimum Inhibitory Concentration, horse serum 10%, inoculum 10^6
[23] = IFO12692, read-out: Minimum Inhibitory Concentration, horse serum 10%, inoculum 10^8
[24] = IFO12692, read-out: Minimum Inhibitory Concentration, horse serum 20%, inoculum 10^6
[25] = IFO12692, read-out: Minimum Inhibitory Concentration, horse serum 20%, inoculum 10^8
[26] = IFO12692, read-out: Minimum Inhibitory Concentration, horse serum 40%, inoculum 10^6
[27] = IFO12692, read-out: Minimum Inhibitory Concentration, horse serum 40%, inoculum 10^8
[28] = E2, read-out: Minimum Inhibitory Concentration, inoculum 1 × 10^6 cells/ml
[29] = E2, read-out: Minimum Inhibitory Concentration, inoculum 1 × 10^8 cells/ml
[30] = read-out: Minimum Inhibitory Concentration, inoculum 1 × 10^6 cells/ml
[31] = read-out: Minimum Inhibitory Concentration, inoculum 1 × 10^8 cells/ml
[32] = IIDS23, read-out: Minimum Inhibitory Concentration, inoculum 1 × 10^6 cells/ml
[33] = IIDS23, read-out: Minimum Inhibitory Concentration, inoculum 1 × 10^8 cells/ml
[34] = ATCC10145, read-out: Minimum Inhibitory Concentration, inoculum 1 × 10^6 cells/ml
[35] = ATCC10145, read-out: Minimum Inhibitory Concentration, inoculum 1 × 10^8 cells/ml
[36] = PCI219, read-out: Minimum Inhibitory Concentration, inoculum 1 × 10^6 cells/ml
[37] = PCI219, read-out: Minimum Inhibitory Concentration, inoculum 1 × 10^8 cells/ml
[38] = IFO13696, read-out: Minimum Inhibitory Concentration, inoculum 1 × 10^6 cells/ml
[39] = IFO13696, read-out: Minimum Inhibitory Concentration, inoculum 1 × 10^8 cells/ml
[40] = IFO12979, read-out: Minimum Inhibitory Concentration, inoculum 1 × 10^6 cells/ml
[41] = IFO12979, read-out: Minimum Inhibitory Concentration, inoculum 1 × 10^8 cells/ml
[42] = IIDOX19, inoculum 1 × 10^6 cells/ml
[43] = IIDOX19, inoculum 1 × 10^8 cells/ml
[44] = NIH96, read-out: Minimum Inhibitory Concentration, inoculum 1 × 10^6 cells/ml
[45] = NIH96, read-out: Minimum Inhibitory Concentration, inoculum 1 × 10^8 cells/ml
[46] = IFO3731, read-out: Minimum Inhibitory Concentration, inoculum 1 × 10^6 cells/ml
[47] = IFO3731, read-out: Minimum Inhibitory Concentration, inoculum 1 × 10^8 cells/ml
[48] = NCTC10490, read-out: Minimum Inhibitory Concentration, inoculum 1 × 10^6 cells/ml
[49] = NCTC10490, read-out: Minimum Inhibitory Concentration, inoculum 1 × 10^8 cells/ml
[50] = read-out: Minimum Inhibitory Concentration, horse serum 0%, inoculum 10^6
[51] = read-out: Minimum Inhibitory Concentration, horse serum 0%, inoculum 10^8
[52] = read-out: Minimum Inhibitory Concentration, horse serum 10%, inoculum 10^6
[53] = read-out: Minimum Inhibitory Concentration, horse serum 10%, inoculum 10^8
[54] = read-out: Minimum Inhibitory Concentration, horse serum 20%, inoculum 10^6
[55] = read-out: Minimum Inhibitory Concentration, horse serum 20%, inoculum 10^8
[56] = read-out: Minimum Inhibitory Concentration, horse serum 40%, inoculum 10^6
[57] = read-out: Minimum Inhibitory Concentration, horse serum 40%, inoculum 10^8

Measured: MIC

CC1CCc2c(N3CCNCC3)ccc3c(=O)c(C(=O)O)cn1c23 (stereo not drawn) [A]
25 µg/mL: [3]; [33] | [4]; [31] | [6]; [31] | [17]; [31]
1.6 µg/mL: [1]; [20] | [1]; [22] | [1]; [23] | Klebsiella pneumoniae; [30] | Klebsiella pneumoniae; [31] | [9] | [10]; [38] | [14]; [43] | [18]; [55]
6.3 µg/mL: [2]; [28] | [4]; [30] | [5]; [34] | [5]; [35] | [8]; [31] | Hafnia alvei IFO 3731; [47] | [15]; [49] | [18]; [51] | [19]; [50] | [19]; [52] | [19]; [53] | [19]; [54] | [19]; [55] | [19]; [57]
0.8 µg/mL: [1]; [24] | [1]; [25] | [1]; [27] | Escherichia Coli NIHJ; [31] | Enterobacter cloacae; [30] | Enterobacter cloacae; [31] | [7]; [36] | [7]; [37] | [11]; [40] | [11]; [41] | [14]; [42] | Shigella Sonnei EW 33; inoculum 1 × 10^8 cells/ml | [18]; [54] | [18]; [56] | [18]; [57]
12.5 µg/mL: [2]; [29] | [3]; [32] | [6]; [30] | [13] | [16]; [31] | [17]; [30] | [19]; [51]
0.4 µg/mL: [1]; [26] | Escherichia Coli NIHJ; [30] | [12]; inoculum 1 × 10^8 cells/ml | Proteus rettgeri NIH 96; [44] | Proteus rettgeri NIH 96; [45] | Shigella Sonnei EW 33; inoculum 1 × 10^6 cells/ml
3.1 µg/mL: [1]; [21] | [8]; [30] | [10]; [39] | Hafnia alvei IFO 3731; [46] | [15]; [48] | [16]; [30] | [18]; [50] | [18]; [52] | [18]; [53] | [19]; [56]
0.2 µg/mL: [12]; inoculum 1 × 10^6 cells/ml

CC1Cc2c(N3CCNCC3)ccc3c(=O)c(C(=O)O)cn1c23 (stereo not drawn) [C]
6.3 µg/mL: [2]; [29] | [5]; [34] | [5]; [35] | [13] | [15]; [49] | [19]; [51] | [19]; [53]
3.1 µg/mL: [2]; [28] | [7]; [36] | [7]; [37] | [8]; [30] | [8]; [31] | [10]; [38] | [10]; [39] | [14]; [43] | [15]; [48] | [18]; [51] | [19]; [50] | [19]; [52] | [19]; [54] | [19]; [55] | [19]; [57]
100 µg/mL: [3]; [33] | [4]; [31] | [6]; [31] | [16]; [31]
50 µg/mL: [3]; [32] | [4]; [30] | [6]; [30] | [16]; [30] | [17]; [31]
0.4 µg/mL: [1]; [24] | [1]; [26] | [1]; [27] | Escherichia Coli NIHJ; [30] | Enterobacter cloacae; [30] | [11]; [40] | [12]; inoculum 1 × 10^8 cells/ml | [18]; [56] | [18]; [57]
1.6 µg/mL: [1]; [20] | [1]; [21] | [1]; [22] | [1]; [23] | [9] | Hafnia alvei IFO 3731; [47] | Shigella Sonnei EW 33; inoculum 1 × 10^6 cells/ml | Shigella Sonnei EW 33; inoculum 1 × 10^8 cells/ml | [18]; [50] | [18]; [52] | [18]; [53] | [18]; [54] | [18]; [55] | [19]; [56]
25 µg/mL: [17]; [30]
0.2 µg/mL: [12]; inoculum 1 × 10^6 cells/ml
0.8 µg/mL: [1]; [25] | Escherichia Coli NIHJ; [31] | Klebsiella pneumoniae; [30] | Klebsiella pneumoniae; [31] | Enterobacter cloacae; [31] | [11]; [41] | [14]; [42] | Proteus rettgeri NIH 96; [44] | Proteus rettgeri NIH 96; [45] | Hafnia alvei IFO 3731; [46]
